Experimental data: patent EP0472220A1, “Bradykinin antagonists” (SYNTEX (U.S.A.) INC., priority 1990, dated 1992)
≈ marks a conversion by molar mass, not a printed value. Where a SMILES comes first, the peptide text is derived from it. Where no end group is shown, it is not given here. [ ]: non-standard residue; d: D form. d(hArg)(Nω,Nω'-(CH2CF3)2) = N[C@H](CCCCNC(=NCC(F)(F)F)NCC(F)(F)F)C(=O)O; Oic = O=C(O)[C@@H]1C[C@@H]2CCCC[C@@H]2N1; Arg(Me2s) = CN=C(NC)NCCC[C@H](N)C(=O)O; Arg(Et) = CCNC(=N)NCCC[C@H](N)C(=O)O; Arg(Me) = CNC(=N)NCCC[C@H](N)C(=O)O; Hyp = O=C(O)[C@@H]1C[C@@H](O)CN1; dTic = O=C(O)[C@H]1Cc2ccccc2CN1; 2Thi = N[C@@H](Cc1cccs1)C(=O)O

Columns and labels:
in vitro [1] = assay: in vitro
Description: (§1) The ability of bradykinin antagonists to resist proteolysis was determined by measuring the half-life of the analogs in plasma using HPLC. Rat blood was collected into heparin-containing tubes and centrifuged at 2000 X g for 10 minutes at 4°C to separate the plasma. Plasma samples were supplemented with bradykinin analogs (60 µM) and incubated at 37°C. At various times during incubation, an aliquot was removed and the reaction was stopped with 10% trifluoroacetic acid (TFA). The reaction mixture was applied to a 1 mL C₁₈ solid-phase extraction column (Baker) preconditioned with methanol and 10% TEA in H₂O. The analog was eluted with 3 x 100 µl of 15% acetonitrile (CH₃CN), 85% H₂O containing 0.2% TFA. The eluent was dried in a Speed-Vac concentrator (Savant) and redissolved in 300 µL of mobile phase consisting of various proportions of CH₃CN and H₂O containing 0.2% TEA depending on the analog. The sample was injected onto a Pecosphere® (Perkin-Elmer) 3 µm C₁₈ cartridge column (3.3 x 0.46 cm) and eluted with mobile phase at a flow rate of 1 ml/min using a Waters HPLC system. The analog was monitored by uv absorption at 210 nm and the results analyzed with a Hewlett-Packard integrator. Peak height was used to quantitate the amount of analog present in the sample. Plasma degradation followed first-order kinetics and the t1/2 (the time required for half the sample to be degraded) was determined graphically from a plot of log % analog remaining vs. incubation time.

in vitro [2] = assay: in vitro; remark: listed apart in the source
Description: as §1

[3] = test system: Bradykinin-induced Hypotension; assay: Protection against bradykinin-induced hypotension in rats; format: in vivo, Male Sprague-Dawley rats; settings: co-administration (50-200 nmol/kg) with bradykinin (0.4 µg/kg) via carotid cannula, anesthetized rats
Description: Male Sprague-Dawley rats (200-300 g, Charles River) were anesthetized with 40 mg/kg ip sodium pentobarbital. The left femoral artery and vein were fitted with polyethylene cannulas (Intramedic PE-50) and the left carotid artery was fitted with a PE-20 cannula. […] The femoral arterial cannula was connected to a blood pressure transducer (Statham) and Beckman dynograph for recording systolic and diastolic pressure. The femoral venous cannula was used to administer maintenance anesthesia. […] All cannulas were filled with heparinized (40 U/mL) saline to maintain patency. Rats were placed on a 37°C water blanket and allowed to reach a stable anesthetic plane characterized by a mean arterial blood pressure of ≧90 mm Hg and a positive response to a toe pinch.

Bradykinin Receptor = target: T1, Bradykinin Receptor (Cavia porcellus, UniProt O70526); assay: Guinea pig ileum bradykinin receptor binding assay; settings: concentration of analog that reduced the binding of 100 pM [³H]bradykinin by 50%; guinea pig ileum membrane preparation; read-out: IC₅₀
T1 construct: A 5 cm section of the distal ileum was removed, rinsed in cold saline and homogenized; from tissue; host or cells: guinea pig distal ileum, crude membrane pellet
T1 sequence (O70526 1-372): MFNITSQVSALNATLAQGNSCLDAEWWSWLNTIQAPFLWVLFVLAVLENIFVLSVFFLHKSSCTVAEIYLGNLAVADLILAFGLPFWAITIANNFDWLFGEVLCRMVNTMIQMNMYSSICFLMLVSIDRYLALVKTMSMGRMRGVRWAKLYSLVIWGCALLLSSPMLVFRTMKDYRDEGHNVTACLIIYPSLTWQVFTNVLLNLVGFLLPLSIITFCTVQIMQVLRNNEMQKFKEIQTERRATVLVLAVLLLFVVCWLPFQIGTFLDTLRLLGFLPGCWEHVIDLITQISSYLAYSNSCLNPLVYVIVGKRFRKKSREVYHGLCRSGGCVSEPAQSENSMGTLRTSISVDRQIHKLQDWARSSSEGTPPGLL
Description: The bradykinin analogs were assayed using a cell-free membrane receptor binding assay described by Innis et al Proc. Natl. Acad. Sci. USA 1981, 78:2630. Male Hartley guinea pigs (400-500g, Charles River) were euthanized by CO₂ asphyxiation. A 5 cm section of the distal ileum was removed, rinsed in cold saline and homogenized in 20 volumes of cold 20 mM TES buffer, pH 6.8, 1mM 1,10-phenanthroline using a Tissumizer (Tekmar) at 75% maximum speed for 12 seconds. The homogenate was centrifuged at 15,000 X g for 25 minutes at 4°C. The crude membrane pellet was washed once in 20 volumes of fresh homogenizing buffer and resuspended in assay buffer (25 mM TES buffer, pH 6.8, 1 mM dithiothreitol, 1 mM 1,10-phenanthroline, 1 µM captopril, 0.014% bacitracin and 0.1% bovine serum albumin) at 100 mL buffer per gram issue. The membrane preparation was quick-frozen in liquid N₂ and stored at -80°C.
The reaction mixture for the receptor binding assay contained bradykinin analog (1-1000 nM), 100 pM [³H]bradykinin (88 Ci/mmol) and 200 µl membrane preparation in a total volume of 500 µl assay buffer. Reactions were incubated at room temperature for 90 minutes and membrane-bound [³H]bradykinin was isolated by filtration through PEI-coated glass fiber filters. The filters were dried and counted for radioactivity in a liquid scintillation counter. Specific binding was calcuated by subtracting the nonspecific binding (determined in a parallel set of assays in the presence of 1 µM unlabeled bradykinin) from the total radioactivity bound to the filters. All incubations were performed in duplicate and the data expressed as % reduction in the specific binding of [³H]bradykinin. The IC₅₀ (the concentration of analog that reduced the binding of 100 pM [³H]bradykinin by 50%) was determined graphically from a plot of % reduction vs. log concentration.

[4] = test system: rat peritoneal mast cells; settings: rat mixed peritoneal cells, 15 minutes, 35°C
Description: Mixed peritoneal cells were recovered from 3 or 4 male Sprague-Dawley rats (350 g, Iffa-Credo, France) by intraperitoneal injection of 10 mL of 0.9% NaCl (containing 50 µg/mL heparin). After gentle massage of the abdominal cavity for 1 minute, the peritoneal cells were removed, pooled and centrifuged for 5 minutes at 300 g. After three rinses in Krebs-Ringer Buffer (KRB: 141.9 mM NaCl; 4.7 mM KCl; 1.0 mM CaCl₂, 11.2 mM MgSO₄; 2.5 mM Na₂HPO₄; 0.6 mM KH₂PO₄), the cells were counted under a microscope and diluted in the appropriate volume of KRB to achieve a cell density of about 2 x 10⁶ cells per mL. Aliquots of 0.5 mL were prewarmed with 0.4 mL Ca⁺⁺-free KRB for 5 minutes at 35°C and 0.1 mL of the appropriate solution of the drugs tested was added or its vehicle alone. 15 minutes later, the reaction was stopped by the addition of 2.5 mL ice-cold KRB and chilling on ice.
After centrifugation of the cell suspension, the histamine content of the supernatant was assayed fluorimetrically by the method of Shore et al., (Immunol. 1959, 127:182) omitting the extraction procedure (Excitation 365 nm; Emission 450 nm).
The total histamine content of the cell suspension was determined after sonication (2 minutes - 5 second pulse frequency).
The spontaneous histamine release was subtracted from all the values measured.

[5] = Ferreira et al. 1967; cited from earlier work

Molecule	half-life at 60 µM (in vitro [1]; mouse, plasma) [h]	half-life at 60 µM (in vitro [2]; human, plasma) [h]	IC50 (Bradykinin Receptor) [nM]	other results
CN=C(N)NCCC[C@H](NC(=O)[C@H](Cc1ccccc1)NC(=O)[C@@H](Cc1ccccc1)NC(=O)[C@H](CO)NC(=O)[C@H](Cc1ccccc1)NC(=O)CNC(=O)[C@@H]1C[C@@H](O)CN1C(=O)[C@@H]1CCCN1C(=O)[C@H](CCCNC(=N)N)NC(=O)[C@H](N)CCCCNC(=NCC(F)(F)F)NCC(F)(F)F)C(=O)O [Compound 1, D-hArg(CH₂CF₃)₂-Arg-Pro-Hyp-Gly-Phe-Ser-D-Phe-Phe-Arg(Me)]	> 2	> 2	–	–
CN=C(N)NCCC[C@H](NC(=O)[C@H](Cc1ccc(OC)cc1)NC(=O)[C@@H](Cc1ccccc1)NC(=O)[C@H](CO)NC(=O)[C@H](Cc1ccccc1)NC(=O)CNC(=O)[C@@H]1C[C@@H](O)CN1C(=O)[C@@H]1CCCN1C(=O)[C@H](CCCNC(=N)N)NC(=O)[C@H](N)CCCCNC(=NCC(F)(F)F)NCC(F)(F)F)C(=O)O [Compound 4, D-hArg(CH₂CF₃)₂-Arg-Pro-Hyp-Gly-Phe-Ser-D-Phe-Tyr(Me)-Arg(Me)] (H-[d(hArg)(Nω,Nω'-(CH2CF3)2)]RP[Hyp]GFS[dF]Y(Me)[Arg(Me)]-OH)	–	–	–	protection against bradykinin-induced hypotension (drop in blood pressure) [3]: reduced or prevented the drop in blood pressure
CN=C(N)NCCC[C@H](NC(=O)[C@@H]1CCCN1C(=O)[C@H]1Cc2ccccc2CN1C(=O)[C@H](CO)NC(=O)[C@H](Cc1ccccc1)NC(=O)CNC(=O)[C@@H]1C[C@@H](O)CN1C(=O)[C@@H]1CCCN1C(=O)[C@H](CCCNC(N)=NC)NC(=O)[C@H](N)CCCCNC(=NCC(F)(F)F)NCC(F)(F)F)C(=O)O [Compound 21, D-hArg(CH₂CF₃)₂-Arg(Me)-Pro-Hyp-Gly-Phe-Ser-D-Tic-Pro-Arg(Me)] (H-[d(hArg)(Nω,Nω'-(CH2CF3)2)][Arg(Me)]P[Hyp]GFS[dTic]P[Arg(Me)]-OH)	–	–	2.2	–
CN=C(N)NCCC[C@H](NC(=O)[C@@H]1C[C@@H]2CCCC[C@@H]2N1C(=O)[C@H]1Cc2ccccc2CN1C(=O)[C@H](CO)NC(=O)[C@H](Cc1cccs1)NC(=O)CNC(=O)[C@@H]1C[C@@H](O)CN1C(=O)[C@@H]1CCCN1C(=O)[C@H](CCCNC(N)=NC)NC(=O)[C@H](N)CCCCNC(=NCC(F)(F)F)NCC(F)(F)F)C(=O)O [Compound 22, D-hArg(CH₂CF₃)₂-Arg(Me)-Pro-Hyp-Gly-Thi-Ser-D-Tic-Oic-Arg(Me)]	> 2	> 2	0.05	–
CN=C(N)NCCC[C@H](NC(=O)[C@H](Cc1ccc(OC)cc1)NC(=O)[C@@H](Cc1ccccc1)NC(=O)[C@H](CO)NC(=O)[C@H](Cc1ccccc1)NC(=O)CNC(=O)[C@@H]1C[C@@H](O)CN1C(=O)[C@@H]1CCCN1C(=O)[C@H](CCCNC(=N)N)NC(=O)[C@H](N)CCCNC(=N)N)C(=O)O [Compound 74, D-Arg-Arg-Pro-Hyp-Gly-Phe-Ser-D-Phe-Tyr(Me)-Arg(Me)] (H-[dR]RP[Hyp]GFS[dF]Y(Me)[Arg(Me)]-OH)	> 2	> 2	30	–
N=C(N)NCCC[C@H](NC(=O)[C@@H]1CCCN1C(=O)[C@H]1Cc2ccccc2CN1C(=O)[C@H](CO)NC(=O)[C@H](Cc1cccs1)NC(=O)CNC(=O)[C@@H]1C[C@@H](O)CN1C(=O)[C@@H]1CCCN1C(=O)[C@H](CCCNC(=N)N)NC(=O)[C@H](N)CCCCNC(=NCC(F)(F)F)NCC(F)(F)F)C(=O)O [Compound 75, D-hArg(CH₂CF₃)₂-Arg-Pro-Hyp-Gly-Thi-Ser-D-Tic-Pro-Arg] (H-[d(hArg)(Nω,Nω'-(CH2CF3)2)]RP[Hyp]G[2Thi]S[dTic]PR-OH)	–	–	1	–
CN=C(NC)NCCC[C@H](NC(=O)[C@@H]1C[C@@H]2CCCC[C@@H]2N1C(=O)[C@H]1Cc2ccccc2CN1C(=O)[C@H](CO)NC(=O)[C@H](Cc1cccs1)NC(=O)CNC(=O)[C@@H]1C[C@@H](O)CN1C(=O)[C@@H]1CCCN1C(=O)[C@H](CCCNC(=NC)NC)NC(=O)[C@H](N)CCCCNC(=NCC(F)(F)F)NCC(F)(F)F)C(=O)O [Compound 81, D-hArg(CH₂CF₃)₂-Arg(Me₂)-Pro-Hyp-Gly-Thi-Ser-D-Tic-Oic-Arg(Me₂)]	–	–	0.15	–
CN=C(NC)NCCC[C@H](NC(=O)[C@@H]1C[C@@H]2CCCC[C@@H]2N1C(=O)[C@H]1Cc2ccccc2CN1C(=O)[C@H](CO)NC(=O)[C@H](Cc1ccccc1)NC(=O)CNC(=O)[C@@H]1C[C@@H](O)CN1C(=O)[C@@H]1CCCN1C(=O)[C@H](CCCNC(=NC)NC)NC(=O)[C@H](N)CCCCNC(=NCC(F)(F)F)NCC(F)(F)F)C(=O)O [Compound 89, D-hArg(CH₂CF₃)₂-Arg(Me₂)-Pro-Hyp-Gly-Phe-Ser-D-Tic-Oic-Arg(Me₂)] (H-[d(hArg)(Nω,Nω'-(CH2CF3)2)][Arg(Me2s)]P[Hyp]GFS[dTic][Oic][Arg(Me2s)]-OH)	–	–	0.07	EC50 (histamine release) [4]: 312 µg/mL (≈ 204 µM)
CCN=C(N)NCCC[C@H](NC(=O)[C@H](N)CCCCNC(=NCC(F)(F)F)NCC(F)(F)F)C(=O)N1CCC[C@H]1C(=O)N1C[C@H](O)C[C@H]1C(=O)NCC(=O)N[C@@H](Cc1ccccc1)C(=O)N[C@@H](CO)C(=O)N1Cc2ccccc2C[C@@H]1C(=O)N1[C@H](C(=O)N[C@@H](CCCNC(=NC)NC)C(=O)O)C[C@@H]2CCCC[C@@H]21 [Compound 90, D-hArg(CH₂CF₃)₂-Arg(Et)-Pro-Hyp-Gly-Phe-Ser-D-Tic-Oic-Arg(Me₂)] (H-[d(hArg)(Nω,Nω'-(CH2CF3)2)][Arg(Et)]P[Hyp]GFS[dTic][Oic][Arg(Me2s)]-OH)	–	–	0.04	EC50 (histamine release) [4]: 216 µg/mL (≈ 141 µM)
CN=C(N)NCCC[C@H](NC(=O)[C@@H]1C[C@@H]2CCCC[C@@H]2N1C(=O)[C@H]1Cc2ccccc2CN1C(=O)[C@H](CO)NC(=O)[C@H](Cc1ccccc1)NC(=O)CNC(=O)[C@@H]1C[C@@H](O)CN1C(=O)[C@@H]1CCCN1C(=O)[C@H](CCCNC(N)=NC)NC(=O)[C@H](N)CCCCNC(=NCC(F)(F)F)NCC(F)(F)F)C(=O)O [Compound 91, D-hArg(CH₂CF₃)₂-Arg(Me)-Pro-Hyp-Gly-Phe-Ser-D-Tic-Oic-Arg(Me)] (H-[d(hArg)(Nω,Nω'-(CH2CF3)2)][Arg(Me)]P[Hyp]GFS[dTic][Oic][Arg(Me)]-OH)	> 2	> 2	0.05	–
RPPGFSPFR [bradykinin]	–	–	–	half-life at 60 µM (in vitro [1]): < 0.0833 h; half-life at 60 µM (in vitro [1]; rat, plasma): < 0.0833 h; half-life at 60 µM (in vitro [2]): < 0.0833 h; half-life in the systemic circulation [5]: less than 30 seconds
